Reference: patent publication US9518041B2, “(+)-5-(3,4-difluorophenyl)-5-[(3-methyl-2-oxopyridin-1(2H)-yl)methyl]imidazolidine-2,4-dione and drug containing same” (KAKEN PHARMACEUTICAL CO., LTD., priority 2013, dated 2016)

Tests used:
[1] = target: T1, human MMP-8 (Homo sapiens, UniProt P22894); test: MMP-8 inhibition test; assay type: biochemical; details: read-out: Inhibitory activity (IC50, nM) MMP-8
T1 construct: purchased Calbiochem 444229
Experimental: MMP inhibition tests can be carried out, for example, using a fluorescent synthetic substrate based on the methods described in Bickett et al. (D. Mark Bickett et al., Anal. Biochem., 1993, 212, 58-64) and Nagase et al. (H. Nagase et al., J. Biol. Chem., 1994, 269, 20952-20957). The method for each MMP inhibition test is shown below.
90 μL (29 ng) of human MMP-8 (Calbiochem #444229) was mixed with 10 μL of 10 mM APMA, and activated by reacting at 37° C. for 1 hour. 10 μL of the resultant enzyme solution was diluted to 90 μL with an assay buffer A. The mixture was added to 90 μL of a 20 μM fluorescent substrate (MOCAc-Pro-Leu-Gly-Leu-A2pr(Dnp)-Ala-Arg-NH2, Peptide Institute Inc., #3163-v) (SEQ ID NO: 3) prepared with an assay buffer B, and reacted at 37° C. for 5 hours. Enzyme activity was then determined by measuring with a fluorescence intensity meter (Labsystems, Fluoroskan Ascent) at an excitation wavelength of 320 nm and a measurement wavelength of 405 nm.
From the enzyme activity in the presence or the absence of the test substance, the inhibition rate was determined, and the 50% inhibitiory concentration (IC50) of the test substance was calculated.

[2] = system: auricular oedema induced by TPA; test: Inhibition test of auricular oedema induced by single application of TPA in mouse; assay type: in vivo, BALB/c mice
Experimental: Auricular oedema was induced by applying 54 μmol/L TPA-acetone solution on both the inner and outer sides of the left ear of BALB/c mice (application volume of 54 μmol/L TPA-acetone solution is 10 μL for each side of the left ear (i.e. 1.08 nmol TPA/auricle)). For a non-induced group, acetone was similarly applied instead of the 54 μmol/L TPA-acetone solution. […] Auricle thickness was measured under ether anesthesia the day before TPA application and 6 hours after TPA application for evaluation of the auricular oedema inhibition effect of the test substance based on the increase in auricle thickness as an index.
The auricular oedema inhibition rate (%) of the test substance was calculated based on the following formula using (A) the average value of the increase in auricular thickness of the group administered with the test substance, (B) the average value of the increase in auricular thickness of the non-induced group, and (C) the average value of the increase in auricular thickness of the control group. […]
The auricular oedema inhibition rate (%) of etanercept was calculated based on the following formula using (B) the average value of the increase in auricular thickness of the non-induced group, (D) the average value of the increase in auricular thickness of the etanercept group, and (E) the average value of the increase in auricular thickness of the hIgG group. […]

[3] = Solubility test in organic solvents (propylene glycol, butylene glycol); assay type: physicochemical; details: organic solvent or mixture, thermodynamic from solid
Experimental: Under room temperature conditions, in a 0.5 mL polypropylene tube, (+)-5-(3,4-difluorophenyl)-5-[(3-methyl-2-oxopyridin-1(2H)-yl)methyl]imidazolidine-2,4-dione and (±)-5-(3,4-difluorophenyl)-5-[(3-methyl-2-oxopyridin-1(2H)-yl)methyl]imidazolidine-2,4-dione measured in advance for a suitable amount were prepared, respectively. In each tube, solvent (Propylene glycol (PG) or butylene glycol (BG)) was added with various amounts, e.g. 10 times, 20 times or 100 times amount of the test compound, and stirred with a vortex mixer. With a table ultrasonic washer set at 37° C., ultrasonication treatment was given for 10 minutes; after warming for an hour in a thermostat chamber, each were kept standing for 24 hours at room temperature. The test solutions were observed by sight to evaluate the states in accordance with the determination criterion given below.
Determination criterion consisted of the following two categories:
“Soluble”: Test compound dissolved; no undissolved substances confirmed by visual observation.
“Insoluble”: Test compound remains undissolved; undissolved substances confirmed by visual observation.

T1 sequence (P22894 101-467): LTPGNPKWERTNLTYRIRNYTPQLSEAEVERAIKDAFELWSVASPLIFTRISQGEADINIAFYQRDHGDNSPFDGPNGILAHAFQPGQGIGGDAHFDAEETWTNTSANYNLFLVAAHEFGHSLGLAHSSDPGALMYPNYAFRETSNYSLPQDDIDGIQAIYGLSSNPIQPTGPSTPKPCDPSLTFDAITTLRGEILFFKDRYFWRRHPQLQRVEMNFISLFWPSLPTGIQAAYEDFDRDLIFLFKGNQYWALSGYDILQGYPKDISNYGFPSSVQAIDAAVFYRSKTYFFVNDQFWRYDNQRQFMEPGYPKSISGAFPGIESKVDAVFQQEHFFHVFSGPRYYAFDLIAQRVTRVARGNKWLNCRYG

Which IC50 [1] does the source give for Cc1cccn(CC2(c3ccc(F)c(F)c3)NC(=O)NC2=O)c1=O (single isomer, unassigned; (+)) [(+)-5-(3,4-difluorophenyl)-5-[(3-methyl-2-oxopyridin-1(2H)-yl)methyl]imidazolidine-2,4-dione] here?
The IC50 was greater than 10000 nM.

What about the “Auricular oedema inhibition rate (%)” value ([2]; BALB/c mice, topical 1 w/v % solution, 10 μL each side of left ear, 1 hour before TPA, auricle thickness 6 hours after TPA) of the same compound?
Its value is 62%.

And the “Etanercept ratio (inhibition rate of test substance / inhibition rate of etanercept)” value ([2]; etanercept 1 mg/mouse intravenously as positive control)?
Its value is 3.4.

What about the solubility at 24 h [3] of the same compound?
Its solubility at 24 h is greater than 10000 µg/mL.
